# Reference: the supplement of paper PMC3974653
# Where a name gives a salt, the structure may show the parent alone.
# Test system: MTT (mouse pheochromocytoma)
# Assay: IC50 of cell viability (ATP content)
# Settings: (24 or 48 h)
# In short: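 Each well of a white 1536-well plate received 5 µl of MTT mouse pheochromocytoma cells at 200,000 cells/ml in DMEM containing 5% FBS and 1% horse serum. After overnight culture at 37°C, 5% CO2, cells were exposed for 24 or 48 hrs to 23 nl of library compound in DMSO, pinned at 8 final concentrations from 0.5 nM to 46 µM. CellTiter-Glo luminescence was read after 15 minutes, and IC50 was obtained from a four-parameter logistic fit of signals normalised to positive-control and DMSO wells.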
row,SMILES,IC50 of cell viability
1,O=C(O)/C=C\C(=O)O.O=C(O)/C=C\C(=O)O.c1cc(CN2CCCCC2)cc(OCCCNc2nc3ccccc3s2)c1,> 46 µM
2,OC(CN1CCCCC1)c1cc(-c2ccccc2)on1 (centres undefined),> 46 µM
3,C1CCNCC1.Oc1ncnc2[nH]cc(CN3CCCCC3)c12,> 46 µM
4,C=C(NCc1ccccc1)c1ccccc1O,> 46 µM
5,O=C(NOCC(O)CO)c1ccc(F)c(F)c1Nc1ccc(I)cc1F (centres undefined),> 46 µM
6,O=C(O)CCCO,> 46 µM
7,NCCO/C=C/C(N)C(=O)O (centres undefined),> 46 µM
8,C[C@H](O)CN(C)C,> 46 µM
9,CCOC(=O)C(CS)NCCN[C@@H](CS)C(=O)OCC (some centres undefined),> 46 µM
10,C=Cc1ccc(S(=O)(=O)[O-])cc1,> 46 µM
11,"CNC[C@H](O)c1ccc(O)cc1 (racemic) [(+,-)-Synephrine]",> 46 µM
12,O=C1CCC(N2C(=O)c3ccccc3C2=O)C(=O)N1 (racemic) [(+-)-Thalidomide],> 46 µM
13,"COc1cc(CC(C)N)c(OC)cc1Br (racemic) [(±)-2,5-Dimethoxy-4-bromoamphetamine hydrobromide]",> 46 µM
14,"CC(N)Cc1ccc2c(c1)OCO2 (racemic) [(±)-3,4-Methylenedioxyamphetamine hydrochloride]",> 46 µM
15,CCCCCC(O)/C=C/C=O (racemic) [(±)-4-Hydroxynon-2-enal],> 46 µM
16,COCCc1ccc(OCC(O)CNC(C)C)cc1 (racemic) [(±)-Metoprolol (+)-tartrate salt],> 46 µM
17,NCC(O)c1ccc(O)cc1 (racemic) [DL-OCTOPAMINE],> 46 µM
18,O=C(O)[C@@H]1CCCN1 (racemic) [DL-Proline],> 46 µM
19,Cl.NCCCC(N)(C(=O)O)C(F)F (racemic) [DL-alpha-Difluoromethylornithine hydrochloride],> 46 µM
20,CCCCCCCCCCCCCCC[C@H](O)[C@H](N)CO (racemic) [DL-erythro-Dihydrosphingosine],> 46 µM

row,SMILES,IC50 of cell viability
1,"COCCc1ccc(OC[C@H](O)CNC(C)C)cc1.COCCc1ccc(OC[C@H](O)CNC(C)C)cc1.O=C(O)[C@@H](O)[C@@H](O)C(=O)O (racemic) [Metoprolol-(+,-) (+)-tartrate salt]",> 46 µM
2,CC(=O)N[C@@H]1CCSC1=O (racemic) [N-Acetyl-DL-homocysteine Thiolactone],> 46 µM
3,"CC1=CCC(C(C)(C)O)CC1 (racemic) [Terpineol, mixture of isomers]",> 46 µM
4,CC\1=C(/CCN2CCC(CC2)C3=NOC4=C3C=CC(=C4)F)C(=O)[N@@]\5CCC[C@H](O)C5=N1 (racemic) [rac 9-Hydroxy Risperidone],> 46 µM
5,COC(=O)C\1=C(C)\N\C(=C(/[C@@H]1C2=CC(=CC=C2)[N+]([O-])=O)C(=O)O[C@@H]3CCCN(C3)CC4=CC=CC=C4)C (racemic) [rac Benidipine Hydrochloride],> 46 µM
6,O[C@@H](CNC[C@H](O)[C@H]1CCc2cc(F)ccc2O1)[C@@H]1CCc2cc(F)ccc2O1 (racemic) [rac Nebivolol Hydrochloride],> 46 µM
7,"C[C@H]1C2Cc3ccc(O)cc3[C@]1(C)CCN2CC1CC1 (single isomer, unassigned; (+)) [(+)-Cyclazocine]",> 46 µM
8,"CCc1cc(OC)c(CC(C)N)cc1OC (single isomer, unassigned; (-)) [(-)-2,5-Dimethoxy-4-ethylamphetamine]",> 46 µM
9,"COc1cc(CC(C)N)c(OC)cc1C (single isomer, unassigned; (-)) [(-)-2,5-Dimethoxy-4-methylamphetamine]",> 46 µM
10,"COc1ccc(OC)c(CC(C)N)c1 (single isomer, unassigned; (-)) [(-)-2,5-Dimethoxyamphetamine]",> 46 µM
11,"COc1cc(CC(C)N)c(OC)cc1Br (single isomer, unassigned; (-)) [(-)-4-Bromo-2,5-dimethoxyamphetamine]",> 46 µM
12,"CN1C2CCC1C(C(=O)O)C(OC(=O)c1ccccc1)C2 (single isomer, unassigned; (-)) [(-)-Benzoylecgonine]",> 46 µM
13,"COC(=O)C1C(OC(=O)c2ccccc2)CC2CCC1N2C (single isomer, unassigned; (-)) [(-)-Cocaine]",> 46 µM
14,"CCNC(C)Cc1cccc(C(F)(F)F)c1 (single isomer, unassigned; (-)) [(-)-Fenfluramine]",> 46 µM
15,"CC12NC(Cc3ccccc31)c1ccccc12.O=C(O)/C=C/C(=O)O (single isomer, unassigned; (-)) [(-)-MK-801 hydrogen maleate]",> 46 µM
16,"CC1[C@H]2Cc3ccc(O)cc3[C@]1(C)CCN2C (single isomer, unassigned; (-)) [(-)-Metazocine]",> 46 µM
17,"COc1ccc2c3c1O[C@H]1[C@@H](O)C=C[C@H]4C(C2)NCCC341 (single isomer, unassigned; (-)) [(-)-NORCODEINE]",> 46 µM
18,"CC(C)=CCN1CC[C@@]2(C)c3cc(O)ccc3C[C@@H]1C2C (single isomer, unassigned; (-)) [(-)-Pentazocine]",> 46 µM
19,"CC1[C@H]2Cc3ccc(O)cc3[C@]1(C)CCN2CCc1ccccc1 (single isomer, unassigned; (-)) [(-)-Phenazocine]",> 46 µM
